Entries after “also recorded” stand apart in the source; their conditions may differ.
Columns and labels:
[1] = test system: human aortic smooth muscle cells (HASMCs); test: HASMCs proliferation induced by LPS (WST-1); assay type: cell-based
Experimental: First, HASMCs were seeded into 96-well plates.
Chalcone compounds 1 to 29 at different concentrations prepared in Experiment 1 were used to determine the effect of HASMCs proliferation induced by LPS. […] In reference to the drug concentration for cytotoxicity that HASMCs tolerate, the chalcone compounds having the relevant substituents to compound 1 were selected (rather than all chalcone compounds) to compare with each other at the same concentration.

cyclin D1 = test: Cyclin D1 protein expression in Ox-LDL treated HASMCs (immunoblotting); assay type: cell-based, human; conditions: FIG. 9, PD98059 10^−5 M, compound 1 5 μg/ml, rosiglitazone 5 μg/ml, Ox-LDL 30 μg/ml, 8 hours
Excerpt: (§1) Three independent experiments are made in each group.

cyclin D3 = test: Cyclin D3 protein expression in Ox-LDL treated HASMCs (immunoblotting); assay type: cell-based, human; conditions: FIG. 9, PD98059 10^−5 M, compound 1 5 μg/ml, rosiglitazone 5 μg/ml, Ox-LDL 30 μg/ml, 8 hours
Excerpt: as §1

Ki-67 protein = Ki-67 protein immunofluorescence in Ox-LDL stimulated HASMCs; assay type: cell-based, human; conditions: Ox-LDL 30 μg/ml, 24 hours; for positive stains of Ki-67: compound 1 5 μg/ml or PD98059 10^−5 M
Experimental: For analyzing the mechanisms of compound 1 on inhibiting HASMCs proliferation, the cellular marker for proliferation, Ki-67 protein (also known as MKI67), detected with green fluorescence was the index for HASMCs proliferation. The experiment method was to stimulate HASMCs with Ox-LDL (30 μg/ml) for 24 hours, and simultaneously compound 1 (5 μg/ml) or PD98059 (an ERK 1/2 inhibitor, 10^−5 M) was added. A mouse anti-Ki-67 monoclonal antibody was combined with a DyLight™488-conjugated second antibody to confirm the HASMCs proliferation. DAPI (4′,6-diamidino-2-phenylindole), a fluorescent stain that binds strongly to DNA, was used to localize cell nuclei. Cells were observed under flourescence microscopy. The proliferative cells were quantified by counting the ratio of DyLight™488 (green) fluorescence and DAPI (blue) fluorescence.

PPARγ [2] = test: PPARγ mRNA expression in HASMCs (real-time PCR); assay type: cell-based, human
Experimental: The anti-inflammatory effect of compound 1 was determined by the mRNA expressions of IL-1β and IL-6. HASMCs were stimulated with Ox-LDL (30 μg/ml) for 8 hours, and simultaneously treated with (i) PD98059 (5 μg/ml), (ii) rosiglitazone (5 μg/ml), (iii) compound 1 (5 μg/ml) and (iv) rosiglitazone (5 μg/ml) plus compound 1 (5 μg/ml). […] SEQ ID Nos: 1 and 2 were paired in amplification of IL-1β gene, SEQ ID Nos: 3 and 4 were paired in amplification of IL-6 gene, SEQ ID Nos: 5 and 6 were paired in amplification of PPARα gene, SEQ ID Nos: 7 and 8 were paired in amplification of PPARγ gene, and SEQ ID Nos: 9 and 10 were paired in amplification of β-actin gene.
This experiment was performed to investigate the regulatory mechanism of compound 1 on PPARγ based on PPARγ mRNA expression in HASMCs. […]

PPARα = PPARα mRNA expression in HASMCs (real-time PCR); assay type: cell-based, human; conditions: FIG. 6(b); with Ox-LDL 30 μg/ml, compound 1 5 μg/ml, 2, 4, 8 and 24 hours
PPARγ [3] = test: PPARγ protein expression in HASMCs (immunoblotting); assay type: cell-based, human; conditions: FIG. 7(b); compound 1 alone, 0, 1, 2.5 and 5 μg/ml, 4 and 8 hours
Experimental: FIG. 7(a) and FIG. 7(b) respectively are (a) the diagram showing PPARγ mRNA expression and (b) an immunoblotting spectrum showing the PPARγ protein expression of compound 1 (0, 1, 2.5 and 5 μg/ml) on HASMCs for 4 and 8 hours. Data are represented as mean±S.D. in three independent experiments. a: p<0.001, b: p<0.01.
To further confirm whether compound 1 is an inducer of PPARγ for HASMCs, cells were stimulated with compound 1 alone.

[4] = test system: human aortic smooth muscle cells (HASMCs); test: HASMCs proliferation and cell viability induced by Ox-LDL (WST-1); conditions: FIG. 2; 1, 2.5 and 5 μg/ml, Ox-LDL 30 μg/ml, 24 hours
Experimental: For analyzing whether each genus of flavonoid compounds could inhibit the activity of HASMCs proliferation, the proliferation and cell viability of HASMCs were determined using WST-1 reagent (Roche Applied Science, Penzberg, Germany). WST-1 is a tetrazolium salt that will be cleaved to formazan by mitochondrial dehydrogenases in viable cells. First, HASMCs were seeded into 96-well plates. […] At the end of incubation, WST-1 was added into cell medium and the amount of formazan was measured at a wavelength of 450 nm by an ELISA reader.

In the case of `O=C(/C=C/c1ccc(O)cc1)c1ccccc1` [compound 29], the “inhibition activity on HASMCs proliferation induced by LPS” value (“inhibition activity” below) ([1]; FIG. 11(c), 2 μg/ml) is reported as “had no inhibition activity”.

In the case of `O=C(/C=C/c1ccc(OCc2ccccc2)cc1)c1ccccc1O` [compound 25], the “cytotoxicity to HASMCs” value ([1]; FIG. 11(a), 5 μg/ml) is reported as “would result in HASMC death”.

`O=C(/C=C/c1ccc(OCc2ccccc2)cc1)c1cc(Br)ccc1O` [compound 23] was tested, and the “cytotoxicity to HASMCs” value ([1]; FIG. 11(a), 5 μg/ml) was “would lead to death of a part of cells” and the “inhibition activity” value ([1]; FIG. 11(a), 5 μg/ml) was “had inhibition activity”.

`CN(CCOc1ccc(CC2SC(=O)NC2=O)cc1)c1ccccn1` (racemic) [rosiglitazone, (RS)-5-[4-(2-[methyl(pyridin-2-yl)amino]ethoxy)benzyl]thiazolidine-2,4-dione] was tested, and the “cyclin D1 protein expression induced by Ox-LDL” value (cyclin D1) was “did not significantly decrease cyclin D1 and D3 protein expression; also recorded: but not PD98059 and rosiglitazone, significantly decreased the cyclin D1 and D3 upregulation” and the “cyclin D3 protein expression induced by Ox-LDL” value (cyclin D3) was “did not significantly decrease cyclin D1 and D3 protein expression; also recorded: but not PD98059 and rosiglitazone, significantly decreased the cyclin D1 and D3 upregulation”.

In the case of `COc1ccc(/C=C/C(=O)c2ccccc2)cc1` [compound 7], the “inhibition activity” value ([1]; FIG. 11(a), 5 μg/ml) is reported as “compound 1 rather than compound 7 has inhibition activity”.

In the case of `COc1cccc(/C=C/C(=O)c2ccccc2O)c1` [compound 4], the “inhibition activity” value ([1]; FIG. 11(a), 5 μg/ml) is reported as “both had the similar inhibition activity”.

In the case of `COc1cccc(/C=C/C(=O)c2cccc(Br)c2)c1` [compound 14], the “inhibition activity” value ([1]; FIG. 11(b), 2.5 μg/ml) is reported as “compound 12 rather than compound 14 had inhibition activity”.

In the case of `COc1ccc(/C=C/C(=O)c2ccccc2I)cc1` [compound 26], the “inhibition activity” value ([1]; FIG. 11(b), 2.5 μg/ml) is reported as “slightly better than that of compounds 26 and 28”.

For `COc1cccc(-c2cc(=O)c3ccccc3o2)c1N` [PD98059, 2-(2-amino-3-methoxyphenyl)-chromen-4-one], the “positive stains of Ki-67” value (Ki-67 protein) was “decreased the positive stains of Ki-67”, the “cyclin D1 protein expression induced by Ox-LDL” value (cyclin D1) was “did not significantly decrease cyclin D1 and D3 protein expression; also recorded: but not PD98059 and rosiglitazone, significantly decreased the cyclin D1 and D3 upregulation” and the “cyclin D3 protein expression induced by Ox-LDL” value (cyclin D3) was “did not significantly decrease cyclin D1 and D3 protein expression; also recorded: but not PD98059 and rosiglitazone, significantly decreased the cyclin D1 and D3 upregulation”.

`COc1ccc(/C=C/C(=O)c2ccccc2Br)cc1` [compound 12] was tested, and the “inhibition activity” value ([1]; FIG. 11(b), 2.5 μg/ml) was “compound 12 rather than compound 14 had inhibition activity”.

In the case of `O=C(/C=C/c1cccc(OCc2ccccc2)c1)c1ccccc1O` [compound 11], the “cytotoxicity to HASMCs” value ([1]; FIG. 11(c), 2 μg/ml) is reported as “would lead to death of a part cells”.

`O=C(/C=C/c1ccc(OCc2ccccc2)cc1)c1ccc(O)cc1O` [compound 3] was tested, and the “inhibition activity” value ([1]; FIG. 11(c), 2 μg/ml) was “compound 3 rather than compound 6 had inhibition activity”.

With `COc1ccc(/C=C/C(=O)c2ccccc2O)cc1` [compound 1] the “reduction of proliferative (Ki-67 positive) cells compared to Ox-LDL stimulated HASMCs” value (Ki-67 protein; FIG. 3, 5 μg/ml) was “about 10%”, the “positive stains of Ki-67” value (Ki-67 protein) was “decreased the positive stains of Ki-67” and the “time at which maximum PPARγ mRNA expression was reached” value (PPARγ [2]; FIG. 6(a), with Ox-LDL 30 μg/ml, compound 1 5 μg/ml) was 8 h. The “PPARγ mRNA expression” value (PPARγ [2]; FIG. 6(a), with Ox-LDL 30 μg/ml, compound 1 5 μg/ml, 2, 4, 8 and 24 hours) was “significantly increased PPARγ mRNA expression post 4 hours administration”, the “PPARγ mRNA expression” value (PPARγ [2]; FIG. 7(a), compound 1 alone, 0, 1, 2.5 and 5 μg/ml, 4 and 8 hours) was “significantly increased PPARγ mRNA and protein expression in dose and time dependent manners” and the “PPARα mRNA expression” value (PPARα) was “neither Ox-LDL nor compound 1 stimulated PPARα mRNA upregulation”. For the same compound, the PPARγ protein expression (PPARγ [3]) was “significantly increased PPARγ mRNA and protein expression in dose and time dependent manners”, the “cyclin D1 protein expression induced by Ox-LDL” value (cyclin D1) was “significantly inhibited cyclin D1 and D3 protein upregulation induced by Ox-LDL” and the “cyclin D1 protein expression induced by Ox-LDL” value (cyclin D1; listed as Compound 1) was “significantly decreased the cyclin D1 and D3 upregulation”. The “cyclin D3 protein expression induced by Ox-LDL” value (cyclin D3) was “significantly inhibited cyclin D1 and D3 protein upregulation induced by Ox-LDL”, the “cyclin D3 protein expression induced by Ox-LDL” value (cyclin D3; listed as Compound 1) was “significantly decreased the cyclin D1 and D3 upregulation” and the “inhibition activity” value ([1]; FIG. 11(a), 5 μg/ml) was “compound 1 rather than compound 7 has inhibition activity”. For the same compound, the “inhibition activity” value ([1]; FIG. 11(b), 2.5 μg/ml) was “compound 1 rather than compound 5 had inhibition activity”, the “cytotoxicity to HASMCs” value ([1]; FIG. 11(c), 2 μg/ml) was “non-toxic to cells” and the “inhibition activity” value ([1]; FIG. 11(c), 2 μg/ml) was “had the best inhibition activity”. The “cell proliferation compared to Ox-LDL treatment group” value [4] was “significantly decreased in a dose dependent manner”.

With `O=C(/C=C/c1ccccc1)c1ccccc1` [compound 9] the “inhibition activity” value ([1]; FIG. 11(c), 2 μg/ml) was “showed no inhibition activity”.

For `O=C(/C=C/c1ccccc1)c1cc(Br)ccc1O` [compound 19], the “cytotoxicity to HASMCs” value ([1]; FIG. 11(a), 5 μg/ml) was “would lead to death of a part of cells” and the “inhibition activity” value ([1]; FIG. 11(a), 5 μg/ml) was “had inhibition activity”.

In the case of `COc1ccc(/C=C/C(=O)c2ccccc2Cl)cc1` [compound 28], the “inhibition activity” value ([1]; FIG. 11(b), 2.5 μg/ml) is reported as “slightly better than that of compounds 26 and 28”.

In the case of `O=C(/C=C/c1ccccc1)c1ccccc1O` [compound 10], the “inhibition activity” value ([1]; FIG. 11(b), 2.5 μg/ml) is reported as “did not have inhibition activity”.

`O=C(/C=C/c1cccc(OCc2ccccc2)c1)c1cc(Br)ccc1O` [compound 22] was tested, and the “cytotoxicity to HASMCs” value ([1]; FIG. 11(c), 2 μg/ml) was “would lead to death of a part cells”.

With `COc1cccc(/C=C/C(=O)c2ccc(O)cc2O)c1` [compound 6] the “inhibition activity” value ([1]; FIG. 11(c), 2 μg/ml) was “compound 3 rather than compound 6 had inhibition activity”.

In the case of `COc1ccc(/C=C/C(=O)c2cc(Br)ccc2O)cc1` [compound 20], the “cytotoxicity to HASMCs” value ([1]; FIG. 11(a), 5 μg/ml) is reported as “would lead to death of a part of cells” and the “inhibition activity” value ([1]; FIG. 11(a), 5 μg/ml) is reported as “had inhibition activity”.

In the case of `O=C(/C=C/c1ccccc1)c1ccc(O)cc1O` [compound 2], the “cytotoxicity to HASMCs” value ([1]; FIG. 11(c), 2 μg/ml) is reported as “would lead to death of a part cells”.

For `COc1ccc(/C=C/C(=O)c2ccccc2F)cc1` [compound 27], the “inhibition activity” value ([1]; FIG. 11(b), 2.5 μg/ml) was “inhibition activity of compound 1 was better than those of compounds 12 and 27”.

In the case of `COc1ccc(/C=C/C(=O)c2ccc(O)cc2O)cc1` [compound 5], the “inhibition activity” value ([1]; FIG. 11(b), 2.5 μg/ml) is reported as “compound 1 rather than compound 5 had inhibition activity”.

With `COc1cccc(/C=C/C(=O)c2ccccc2)c1` [compound 8] the “inhibition activity” value ([1]; FIG. 11(c), 2 μg/ml) was “did not have inhibition activity”.

For `COc1cccc(/C=C/C(=O)c2ccc(Cl)cc2)c1` [compound 15], the “cytotoxicity to HASMCs” value ([1]; FIG. 11(c), 2 μg/ml) was “would lead to death of a part cells”.

For `COc1cccc(/C=C/C(=O)c2cc(Br)ccc2O)c1` [compound 21], the “cytotoxicity to HASMCs” value ([1]; FIG. 11(a), 5 μg/ml) was “would lead to death of a part of cells” and the “inhibition activity” value ([1]; FIG. 11(a), 5 μg/ml) was “had inhibition activity”.
